Assays:
Plasmodium falciparum [1] = assay: NOVARTIS: Inhibition of Plasmodium falciparum 3D7 (drug-susceptible) proliferation in erythrocyte-based infection assay; format: functional, organism-based; conditions: Plasmodium falciparum, 3D7
[2] = NOVARTIS: Cytotoxicity against human hepatocellular carcinoma cell line (Huh7); format: toxicity, cell-based, Huh-7; conditions: Huh7 cells (hepatocellular carcinoma cell line)
Plasmodium falciparum [3] = assay: NOVARTIS: Inhibition of Plasmodium falciparum W2 (drug-resistant) proliferation in erythrocyte-based infection assay; format: functional, organism-based; conditions: Plasmodium falciparum, W2; read-out: EC50

| Compound | EC50 (Plasmodium falciparum [1]) | CC50 [2] | EC50 (Plasmodium falciparum [3]) |
| --- | --- | --- | --- |
| COc1cccc(N2C(N)=NC(N)=NC2(C)C)c1 | 55.5 nM | > 100000 nM | 498 nM |
| CCOc1ccc2nc3cc(NCc4ccco4)ccc3c(N)c2c1 | 846 nM | 37900 nM | 757 nM |
| COc1cccc(CCOc2ccc3c(c2)C(=O)N(C(C(=O)NC(C)(C)C)c2cccc(OC)c2)C(CO)C(=O)N3)c1 (configuration not stated) | 153 nM | > 9100 nM | 169 nM |
| COc1cccc(-c2ccc(O)c(CN3CCC(C)CC3)c2)n1 | 337 nM | 75000 nM | 129 nM |
| Cc1ccc(NC=C2C(=O)NC(=S)NC2=O)cc1 | > 12500 nM | > 100000 nM | > 9490 nM |
| CC(C)(C)CC(C)(C)Nc1c(-c2ccccc2OC(=O)c2ccc([N+](=O)[O-])cc2)nc2ccccn12 | 251 nM | 1480 nM | 5.28 nM |
| CCCN[P+](CC(C)C)(NCCC)NCCC | 211 nM | 3340 nM | 398 nM |
| Cc1oc2c(c1C(=O)N1CCC(C)CC1)C(=O)c1ccccc1C2=O | 222 nM | 48300 nM | 79.2 nM |
| CC(C)(C)CC(C)(C)Nc1c(-c2ccccc2OC(=O)c2ccc(Br)cc2)nc2ccccn12 | 1310 nM | > 1430 nM | 96 nM |
| O=C(Nc1ccc(-c2nc3ccc(-c4nc5ccc(NC(=O)c6cccc7ccccc67)cc5[nH]4)cc3[nH]2)cc1)c1cccc2ccccc12 | 742 nM | > 100000 nM | 641 nM |
| CC(=O)Nc1sc(C)c(C)c1N=Nc1ccc(S(=O)(=O)O)cc1 | 1150 nM | > 10000 nM | > 1180 nM |
| CCC(=O)NCc1nc2ccccc2n1Cc1ccc(C)cc1 | > 12500 nM | > 100000 nM | > 9760 nM |
| CCOc1ccc2nc(C)cc(Nc3ccc(OC)cc3)c2c1 | 419 nM | 8350 nM | 1150 nM |
| COc1ccc(OC)c(-c2ccc(O)c(CNC3CCCCC3)c2)c1 | 842 nM | > 10000 nM | 953 nM |
| O=C(c1cc([N+](=O)[O-])cc([N+](=O)[O-])c1)N1CCN(c2cccc(C(F)(F)F)c2)CC1 | 1180 nM | > 10000 nM | 1100 nM |
| Cc1cc(Nc2cccc(Cl)c2)nc(NCc2ccccc2)n1 | 51 nM | 17100 nM | 607 nM |
| Cc1ccc(C(C(=O)NCc2ccccc2)N(C(=O)c2snc(C(N)=O)c2N)c2ccccc2)o1 (configuration not stated) | 1230 nM | > 10000 nM | > 755 nM |

| Compound | EC50 (Plasmodium falciparum [1]) | CC50 [2] | EC50 (Plasmodium falciparum [3]) |
| --- | --- | --- | --- |
| CCOC(=O)c1ccc(NC(=O)c2sc(NC(=O)c3cc(OC)c(OC)c(OC)c3)c(C(=O)OCC)c2C)cc1 | > 995 nM | > 10000 nM | > 1250 nM |
| N#Cc1cc2[nH]c3ccccc3c2n(-c2ccc([N+](=O)[O-])cc2)c1=N | 530 nM | > 100000 nM | 3440 nM |
| Oc1nnc(SCc2nc3ccccc3s2)n1Cc1ccco1 | > 1460 nM | > 10000 nM | 268 nM |
| Oc1ccc(-c2ccnc3cc(Cl)ccc23)cc1CNC1CCCCC1 | 119 nM | 5940 nM | 15.2 nM |
| COc1cccc(CCN2Cc3ccc(C(=O)NC(C)C)cc3N=C2c2ccc(C)cc2)c1 | 938 nM | > 10000 nM | 680 nM |
| CCC(=O)N1c2ccccc2NC2=C(C(=O)CC(C)(C)C2)C1c1ccc2c(c1)OCO2 (configuration not stated) | 3530 nM | > 100000 nM | 6720 nM |
| Cc1ccc(-n2c(-c3ccccc3)cc(C=NNC(=O)c3cccc(O)c3)c2-c2ccccc2)cc1 | 150 nM | > 100000 nM | 139 nM |
| COC(=O)c1c(-c2c(Cl)cccc2Cl)noc1C=CNc1ccc(Cl)cc1 | > 1790 nM | > 100000 nM | 10500 nM |
| O=C(CCn1c(=O)[nH]c2ccccc21)NCC1Cc2cccc(-c3ccncc3)c2O1 (configuration not stated) | 3250 nM | > 100000 nM | 2980 nM |
| CCN1/C(=C\C=C\C2=[N+](C)c3ccccc3C2(C)C)N(c2ccccc2)c2ccccc21 | 1400 nM | > 10000 nM | 1260 nM |
| O=C1N(c2ccccc2)C[C@@H]2C[C@@H](c3ccc(C#CCCO)cc3)N3CCC[C@@]123 | 832 nM | 16800 nM | 757 nM |
| CCCCC(CC)C(=O)N(C)CCCNc1ccnc2cc(Cl)ccc12 (configuration not stated) | 514 nM | > 9260 nM | 233 nM |
| c1ccc(CCc2nc3cccnc3n2C2CCN(C3CCN(Cc4ccccc4)CC3)CC2)cc1 | 153 nM | 81400 nM | 175 nM |
| COc1cc(C=NNC(=O)c2ccc(C(=O)NN=Cc3ccc(O)c(OC)c3)cc2)ccc1O | 652 nM | > 100000 nM | 1030 nM |
| CCCCCOc1ccc(/C=C2/N=C(c3ccccc3)OC2=O)cc1 | > 116 nM | > 10000 nM | > 944 nM |
| O=C(NCc1cccnc1)[C@@H]1C[C@H](NC2CCN(CCc3ccccc3)CC2)CN1Cc1ccc(Cl)cc1 | 88.5 nM | 18500 nM | 592 nM |
| CCOC(=O)c1cnc2c(Cl)cccc2c1Nc1cccc(C(C)=O)c1 | 785 nM | > 100000 nM | 784 nM |
